Columns and labels:
[1] = tested on: embryonic angiogenesis in the chick chorioallantoic membrane; experiment: Chick chorioallantoic membrane assay (CAM); format: in vivo; conditions: methylcellulose disc, 48 hours
Method: The chick CAM assay was conducted as previously reported by us (Moses et al., 1990; Moses et al., 1992; O'Reilly et al., 1994; Moses et al., 1999; Fang et al., 2000) Briefly, three day old chick embryos were removed from their shells and incubated in plastic Petri dishes for three days. On embryonic day 6, samples and controls mixed into methylcellulose discs were applied to the surfaces of developing CAMs, above the dense subectodermal plexus. After 48 hours of incubation, the eggs were examined for vascular reactions under a dissecting scope (60×) and photographed. All determinations were made by 3 independent members of the laboratory, in a double-blinded fashion.

[2] = tested on: Capillary endothelial cells (EC), isolated from bovine adrenal cortex; experiment: bFGF-stimulated capillary EC proliferation assay; format: cell-based
Method: Capillary endothelial cells (EC), isolated from bovine adrenal cortex, were a kind gift of Dr. Judah Folkman (Children's Hospital, Boston) and were maintained in DMEM (Gibco) supplemented with 10% calf serum (HyClone) and 3 ng/ml bFGF, and grown at 37° C. in 10% CO2. Capillary EC proliferation was measured as previously reported by us (Moses et al., 1990; Moses et al., 1992; O'Reilly et al., 1994; Moses et al., 1999) using a modification of the method of Connolly and coworkers (and verified by cell counting using a Coulter Counter) (Connolly et al., 1986). Briefly, capillary EC were plated on pre-gelatinized 96 well plates at a density of 2,000 cells per well in DMEM supplemented with 5% calf serum and allowed to attach for 24 hours. The next day, cells were treated with fresh media with or without 1 ng/ml bFGF and challenged with the test proteins at various concentrations. All samples were tested in duplicate. Control wells contained cell treated with media alone or media with bFGF. After 72 hours, the media was removed and the cells were lysed in buffer containing Triton X-100 and the phosphatase substrate p-nitrophenyl phosphate. After a two-hour incubation at 37° C., NaOH was added to each well to terminate the reaction and cell density was determined by calorimetric analysis using a SpectraMax 190 multiwell plate reader (Molecular Devices).

[3] = tested on: Capillary EC; experiment: Apoptosis assay (TUNEL, DAPI); format: cell-based, bovine; conditions: bFGF-stimulated, 6 hours; Loop 6 at IC50 dose, wortmannin 100 mM
Method: In situ detection of cell death was determined using terminal deoxynucleotidyl transferase dUTP nick-end labeling (TUNEL) following manufacturer's instructions (In Situ Cell Death Detection Kit, Roche Applied Science, Indianapolis, Ind.). Capillary EC were plated at a density of 10,000 cells per well on pre-gelatinized Lab-Tek Chamber Slides (Nalge Nunc, Naperville, Ill.) in DMEM supplemented with 5% calf serum and allowed to attach for 24 hours. The next day, cells were treated with fresh media supplemented with 1 ng/ml bFGF and challenged with an IC50 dose of Loop 6 or […] wortmannin, a dose previously reported to induce apoptosis of capillary E (Flusberg et al., 2001). Cells stimulated with bFGF alone were also used as controls. All samples were tested in duplicate. After 6 hours, the cells were rinsed with PBS and then fixed in 4% paraformaldehyde for 1 hour at room temperature. Fixed cells were again rinsed with PBS and permeabilised with 0.1% Triton X-100 in 0.1% sodium citrate on ice for 2 minutes. After two more rinses in PBS, the cells were exposed to TUNEL reaction mixture and incubated at 37° C. […] Apoptotic nuclei were detected using a Nikon Eclipse TE300 microscope (Nikon Instruments, Melville, N.Y.).

[4] = tested on: Capillary EC; experiment: FGF competition assay; format: cell-based, bovine; conditions: IC50 dose of Loop 6, increasing concentrations of bFGF
Text: To further map the anti-proliferative activity of TIMP-2 within T2C, three peptides corresponding to various smaller domains of T2C were synthesized, purified and tested for their ability to inhibit bFGF-stimulated capillary EC proliferation in vitro. These domains and are depicted in FIG. 6A. […] Given that Loop 6 inhibits bFGF-driven endothelial cell proliferation, we asked whether Loop 6 could directly compete with bFGF.

[5] = tested on: bFGF-driven corneal neovascularization; experiment: Mouse corneal pocket assay; format: in vivo
Method: In vivo inhibition of angiogenesis was also tested using the mouse corneal pocket assay as previously described (O'Reilly et al., 1994; Moses et al., 1999). […] Each animal carried a pellet containing the test sample plus bFGF in one eye, and a control bFGF pellet in the contralateral eye. After six days, angiogenesis was evaluated using a slit lamp microscope, and each eye was photographed. The area of neovascularization for each cornea was calculated from the length of the vessels (VL) invading the cornea as well as the clock hours (CH) covered as described by the formula VL×CH×0.0628.

[6] = tested on: Cyclin D1, Cyclin E, Cyclin A and p27 in capillary EC lysates; experiment: Immunoblot analyses of cell cycle associated proteins; format: cell-based, bovine; conditions: IC50 dose, 16 hours, versus bFGF-stimulated controls
Method: Western analyses of capillary EC lysates were performed as previously described by us (Moses et al., 1999; Yan et al., 2001). Capillary EC were plated, synchronized and treated with an IC50 dose of Loop 6 as described above for cell cycle analysis. After 16 hours, cells exposed to bFGF alone or bFGF and Loop 6 were rinsed in PBS and lysed directly in the culture dish by addition of 500 μl of lysis buffer (1% SDS in 10 mM Tris-Hcl, pH 7.4). Collected lysates were boiled for 5 minutes, mixed by vortexing and then placed on ice. Samples were repeatedly passed through a 22-gauge syringe needle in order to shear the DNA. The samples were then centrifuged, and the supernatant collected. Protein concentration of the lysates was determined using the MicroBCA method (Pierce, Rockford, Ill.). Equal amounts of protein were loaded unto 12% SDS-PAGE gels under reducing conditions, resolved by electrophoresis and subsequently transferred to nitrocellulose using a TransBlot apparatus (BioRad). […] Labeled proteins were detected using Supersignal West Pico Chemiluminescence Substrate (Pierce).

[7] = tested on: vascular smooth muscle cells; experiment: Vascular smooth muscle cell proliferation (data not shown); format: cell-based
[8] = tested on: activated type I collagenase; experiment: 14C-Collagen Film Assay of MMP-inhibitory activity; format: biochemical; conditions: T2C and EAT2N up to approximately 100-fold the IC50 of T2N
Method: MMP-inhibitory activity was assessed using a quantitative ^14C-Collagen Film Assay, as previously described by us (Moses et al., 1990). Briefly, ^14C-labeled collagen was added to 96 well plates and allowed to polymerize. To determine inhibitory activity, wells were treated with a known amount of activated type I collagenase plus test sample or with collagenase alone, and the plates incubated at 37° C. for 2.5 hours to allow for release of ^14C by the enzyme. Supernantants were then analyzed in a Wallac Scintillation Counter, and percent inhibition of collagenolytic activity was calculated. An IC50 was defined as the amount of protein necessary to inhibit the proteolytic activity of collagenase by 50%.

[9] = tested on: Capillary EC; experiment: Cell cycle analysis by flow cytometry; format: cell-based, bovine; conditions: synchronized, bFGF-stimulated, 16 hours; for cells in G1 / cells in G2/M: IC50 dose of Loop 6 or equivalent dose of T2-Tail
Method: Capillary EC were plated at a density of 100,000 cells per plate unto pre-gelatinized 60 mm dishes in DMEM supplemented with 5% calf serum and allowed to attach overnight. The next day, the media was replaced with DMEM supplemented with 0.4% calf serum in order to synchronize the cells by serum starvation. After 36 hours, synchronized cells were stimulated with DMEM containing 5% calf serum plus 1 ng/ml bFGF, and then treated with an IC50 dose of Loop 6 or an equivalent dose of the T2-Tail peptide as control. After 16 hours, the cells were rinsed with PBS, trypsinized and collected by centrifugation. Pelleted cells were rinsed again with PBS and resuspended in 1 ml of 80% ethanol in PBS, and stored at −20° C. overnight. The next morning, cells were collected by centrifugation and resuspended in 500 μl of staining solution (0.1% sodium citrate, 100 μg/ml RNAse A, 0.1% Nonidet-P40, 50 μg/ml propidium iodide). After 30 minutes, DNA content of the cells and the percentages of cells in the various stages of the cell cycle were determined using a FACSVantage SE (Becton Dickinson, Franklin Lanes, N.J.). FACS analysis was performed at the Howard Hughes Institute of Medicine FACS Core Facility at Children's Hospital. All samples were tested in at least duplicate. Histograms of representative experiments for each test condition were created using WinMDI 2.8 (The Scripps Research Institute, La Jolla, Calif.).

| Molecule | effect on neovascularization in the CAM [1] | effect on bFGF-stimulated capillary EC proliferation ([2]; 1 ng/ml bFGF, 72 hours) | inhibition of MMP activity [8] | cells in G1 [9] | cells in G2/M [9] | further results |
| --- | --- | --- | --- | --- | --- | --- |
| Loop 5: 10 amino acid peptide corresponding to Loop 5 of TIMP-2, sequence TRCPMIPCYI (SEQ ID NO: 2) [reference compound] | Neither Loop 5 nor the T2-Tail peptides had any significant effect on neovascularization | stimulated the proliferation of capillary EC | – | – | – | – |
| Loop 6: 24 amino acid peptide corresponding to Loop 6 of TIMP-2, sequence ECLWMDWVTEKNINGHQAKFFACI (SEQ ID NO: 1) | resulted in avascular zones at doses comparable to those tested for T2C | significantly inhibited capillary EC proliferation | neither T2C nor Loop 6 inhibit MMP activity | 45.6% | 9.53% | induction of apoptosis (apoptotic nuclei) [3]: not an inducer of apoptosis; competition with bFGF [4]: not abrogated by increasing doses of bFGF; suppression of bFGF-stimulated neovascularization ([5]; 3 μg/eye, versus contralateral control eyes): ~80%; level of p27 [6]: significantly increased; levels of Cyclins D1, E or A [6]: No significant differences; proliferation of vascular smooth muscle cells [7]: did not inhibit the proliferation of vascular smooth muscle cells; number of cells in S-phase ([9]; IC50 dose): did not change significantly |
| T2-Tail: 19 amino acid peptide corresponding to the carboxy-terminal tail of TIMP-2, sequence AWYRGAAPPKQEFLDIEDP (SEQ ID NO: 3) [reference compound] | Neither Loop 5 nor the T2-Tail peptides had any significant effect on neovascularization | had no effect | – | 27.8% | 34.6% | – |
| VIRAK: control peptide of sequence VIRAK (SEQ ID NO: 4), conserved sequence in the N-terminal domain of all TIMPs [reference compound] | – | no inhibition of capillary EC proliferation | – | – | – | – |
| T2C: recombinant His-tagged TIMP-2 domain composed of the three C-terminal disulfide-bonded loops (~8.5 kD), expressed in Pichia pastoris (protein, disulfide (positions not given here); also: His tag, disulfide pairing not given here, recombinant His-tagged TIMP-2 domain composed of the three C-terminal disulfide-bonded loops (~8.5 kD), expressed in Pichia pastoris) CKITRCPMIPCYISSPDECLWMDWVTEKNINGHQAKFFACIKRSDGSCAWYRGAAPPKQEFLDIEDP | decrease in neovascularization | – | No significant inhibition of MMP activity | – | – | reduction of bFGF-driven corneal neovascularization ([5]; 5 μg/eye, versus contralateral control eye with only bFGF, six days): 87%; lowest dose producing avascular zones [1]: 112 pmol per egg; cytotoxicity to capillary EC [2]: no evidence of cytotoxicity; IC50 ([2]; 1 ng/ml bFGF, 72 hours, read-out: IC50 of inhibition of capillary EC proliferation): ~140 nM |

Source: patent publication US7371812B2, “Antiangiogenic peptides” (Children's Medical Center Corporation, priority 2003, dated 2008)
